Laboratory results from ChEMBL document CHEMBL1955728, “3,5-Disubstituted indole derivatives as selective human neuronal nitric oxide synthase (nNOS) inhibitors” (Bioorg Med Chem Lett, 2012).
Calls of active or inactive are those of the source. The calls are words filed in the database; no cut-off is given here.

Legend:
[1] = target: Nitric oxide synthase, inducible (Homo sapiens, UniProt P35228); test: Inhibition of human iNOS expressed in baculovirus infected insect Sf9 cells assessed as conversion of [3H]-L-arginine to [3H]-L-citrulline
[2] = target: Nitric oxide synthase 1 (Homo sapiens, UniProt P29475); test: Inhibition of human nNOS expressed in baculovirus infected insect Sf9 cells assessed as conversion of [3H]-L-arginine to [3H]-L-citrulline
[3] = target: T1, Nitric oxide synthase 3 (Homo sapiens, UniProt P29474); test: Inhibition of human eNOS expressed in baculovirus infected insect Sf9 cells assessed as conversion of [3H]-L-arginine to [3H]-L-citrulline
T1 sequence (P29474 whole entry): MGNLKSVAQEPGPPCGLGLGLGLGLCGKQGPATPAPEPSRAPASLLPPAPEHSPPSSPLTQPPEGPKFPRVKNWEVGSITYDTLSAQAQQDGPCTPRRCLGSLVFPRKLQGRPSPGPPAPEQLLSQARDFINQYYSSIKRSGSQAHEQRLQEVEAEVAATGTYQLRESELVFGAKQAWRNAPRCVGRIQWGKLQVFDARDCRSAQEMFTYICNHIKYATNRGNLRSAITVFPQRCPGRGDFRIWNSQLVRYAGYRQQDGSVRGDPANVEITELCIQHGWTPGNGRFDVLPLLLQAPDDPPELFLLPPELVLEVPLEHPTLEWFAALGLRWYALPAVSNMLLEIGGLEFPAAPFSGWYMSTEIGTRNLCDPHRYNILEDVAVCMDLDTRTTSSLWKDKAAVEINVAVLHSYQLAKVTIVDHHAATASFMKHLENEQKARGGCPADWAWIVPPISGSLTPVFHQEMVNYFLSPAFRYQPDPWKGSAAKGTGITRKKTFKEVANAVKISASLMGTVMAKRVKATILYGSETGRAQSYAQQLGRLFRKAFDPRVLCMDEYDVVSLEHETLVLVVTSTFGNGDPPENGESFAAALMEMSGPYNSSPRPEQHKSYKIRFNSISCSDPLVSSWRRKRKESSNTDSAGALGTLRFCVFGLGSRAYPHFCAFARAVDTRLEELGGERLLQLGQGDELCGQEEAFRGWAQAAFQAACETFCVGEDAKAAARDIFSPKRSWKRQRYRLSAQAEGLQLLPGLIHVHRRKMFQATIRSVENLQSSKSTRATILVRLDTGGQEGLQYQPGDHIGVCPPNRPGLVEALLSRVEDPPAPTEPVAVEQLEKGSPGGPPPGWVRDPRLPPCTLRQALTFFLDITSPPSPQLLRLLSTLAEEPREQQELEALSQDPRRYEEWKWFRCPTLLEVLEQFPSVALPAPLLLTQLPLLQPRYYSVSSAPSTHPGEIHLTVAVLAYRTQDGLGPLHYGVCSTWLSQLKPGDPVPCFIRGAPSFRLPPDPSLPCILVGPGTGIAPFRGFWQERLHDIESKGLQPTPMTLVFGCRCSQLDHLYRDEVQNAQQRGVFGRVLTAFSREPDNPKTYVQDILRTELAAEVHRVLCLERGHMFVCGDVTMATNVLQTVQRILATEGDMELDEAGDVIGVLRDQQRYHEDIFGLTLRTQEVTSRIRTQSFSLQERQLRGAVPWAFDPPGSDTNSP

[4] = species: Homo sapiens; test: Selectivity ratio of IC50 for human eNOS to IC50 for human nNOS
[5] = system: Rattus norvegicus; test: Antihyperalgesic activity in rat L5/L6 SNL model of neuropathic pain assessed as reversal of thermal hyperalgesia at 10 mg/kg, ip measured after 30 to 120 mins; format: functional, organism-based; set-up: dose 10 mg/kg
[6] = target: Nitric oxide sythases; iNOS & nNOS (Homo sapiens) (UniProt P29475+P35228); test: Selectivity ratio of IC50 for human iNOS to IC50 for human nNOS
[7] = target: Nitric oxide synthase 1 (Rattus norvegicus, UniProt P29476); test: Inhibition of rat nNOS
[8] = Vasoconstrictive activity in human arteries assessed as inhibition of acetylcholine-induced vasorelaxation at 10 uM in presence of thromboxane A2 mimetic agent U46619; format: tissue-based, Artery
[9] = target: Cytochrome P450 2C9 (Homo sapiens, UniProt P11712); test: Inhibition of human CYP2C9; format: ADME
[10] = target: T2, Cytochrome P450 1A2 (Homo sapiens, UniProt P05177); test: Inhibition of human CYP1A2; format: ADME
T2 sequence (P05177 whole entry): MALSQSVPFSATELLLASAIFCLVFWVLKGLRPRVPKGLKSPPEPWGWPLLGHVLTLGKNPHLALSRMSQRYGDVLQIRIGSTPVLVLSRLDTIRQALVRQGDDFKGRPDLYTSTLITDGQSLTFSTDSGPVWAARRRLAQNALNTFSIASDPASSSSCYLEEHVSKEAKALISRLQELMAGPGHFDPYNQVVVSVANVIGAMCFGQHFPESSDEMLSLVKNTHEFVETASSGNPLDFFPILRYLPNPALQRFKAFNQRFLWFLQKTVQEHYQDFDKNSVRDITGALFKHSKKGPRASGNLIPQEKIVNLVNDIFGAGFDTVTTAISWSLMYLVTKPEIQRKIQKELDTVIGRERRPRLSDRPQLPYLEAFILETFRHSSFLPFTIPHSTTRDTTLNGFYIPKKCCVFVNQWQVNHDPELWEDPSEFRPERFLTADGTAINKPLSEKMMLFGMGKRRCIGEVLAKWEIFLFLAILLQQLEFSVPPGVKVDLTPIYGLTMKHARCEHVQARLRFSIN

[11] = target: Cytochrome P450 2C19 (Homo sapiens, UniProt P33261); test: Inhibition of human CYP2C19; format: ADME
[12] = target: Cytochrome P450 3A4 (Homo sapiens, UniProt P08684); test: Inhibition of human CYP3A4; format: ADME
[13] = target: Cytochrome P450 2D6 (Homo sapiens, UniProt P10635); test: Inhibition of human CYP2D6; format: ADME
[14] = system: Rattus norvegicus; test: Antihyperalgesic activity in rat L5/L6 SNL model of neuropathic pain assessed as reversal of thermal hyperalgesia at 10 mg/kg, ip measured after 30 mins; format: functional; details: route intraperitoneal

Sequence of Nitric oxide sythases; iNOS & nNOS (Homo sapiens) (P29475 whole entry, looked up): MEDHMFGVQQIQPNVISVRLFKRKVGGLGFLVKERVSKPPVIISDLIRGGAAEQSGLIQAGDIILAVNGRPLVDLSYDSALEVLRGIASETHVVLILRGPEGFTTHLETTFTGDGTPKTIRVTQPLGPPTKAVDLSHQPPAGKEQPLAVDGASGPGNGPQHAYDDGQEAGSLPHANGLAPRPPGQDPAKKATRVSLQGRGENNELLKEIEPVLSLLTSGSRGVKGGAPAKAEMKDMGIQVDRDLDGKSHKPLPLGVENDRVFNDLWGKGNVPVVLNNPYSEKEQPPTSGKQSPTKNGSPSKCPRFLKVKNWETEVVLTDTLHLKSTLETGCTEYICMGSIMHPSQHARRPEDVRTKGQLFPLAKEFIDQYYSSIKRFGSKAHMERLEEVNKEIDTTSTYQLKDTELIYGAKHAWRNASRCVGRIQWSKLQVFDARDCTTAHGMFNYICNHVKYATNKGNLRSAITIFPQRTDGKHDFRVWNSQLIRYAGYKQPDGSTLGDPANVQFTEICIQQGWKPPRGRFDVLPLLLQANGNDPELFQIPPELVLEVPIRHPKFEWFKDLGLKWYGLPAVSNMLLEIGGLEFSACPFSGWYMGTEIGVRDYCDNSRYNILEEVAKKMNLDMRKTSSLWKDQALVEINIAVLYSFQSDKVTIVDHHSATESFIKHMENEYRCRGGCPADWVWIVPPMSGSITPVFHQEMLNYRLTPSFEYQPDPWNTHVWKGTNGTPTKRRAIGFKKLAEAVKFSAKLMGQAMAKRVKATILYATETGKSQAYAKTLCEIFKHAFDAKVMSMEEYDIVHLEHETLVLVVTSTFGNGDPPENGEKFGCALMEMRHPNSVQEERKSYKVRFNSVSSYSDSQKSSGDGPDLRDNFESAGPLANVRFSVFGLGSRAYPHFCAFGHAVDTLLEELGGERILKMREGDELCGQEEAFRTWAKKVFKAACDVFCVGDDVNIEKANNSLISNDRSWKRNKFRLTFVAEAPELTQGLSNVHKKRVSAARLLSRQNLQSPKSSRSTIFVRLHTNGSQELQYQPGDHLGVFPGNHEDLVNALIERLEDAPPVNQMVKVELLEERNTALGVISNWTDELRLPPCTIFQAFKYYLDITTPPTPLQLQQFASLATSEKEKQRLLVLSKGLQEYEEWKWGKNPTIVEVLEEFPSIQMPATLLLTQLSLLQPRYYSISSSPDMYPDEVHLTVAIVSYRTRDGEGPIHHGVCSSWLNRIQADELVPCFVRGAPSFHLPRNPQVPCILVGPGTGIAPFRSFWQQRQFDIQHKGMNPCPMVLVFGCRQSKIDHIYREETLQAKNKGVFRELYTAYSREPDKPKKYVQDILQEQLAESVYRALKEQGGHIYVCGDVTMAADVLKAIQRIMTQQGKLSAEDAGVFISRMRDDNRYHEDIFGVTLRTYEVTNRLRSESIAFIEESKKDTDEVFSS
Sequence of Nitric oxide sythases; iNOS & nNOS (Homo sapiens) (P35228 whole entry, looked up): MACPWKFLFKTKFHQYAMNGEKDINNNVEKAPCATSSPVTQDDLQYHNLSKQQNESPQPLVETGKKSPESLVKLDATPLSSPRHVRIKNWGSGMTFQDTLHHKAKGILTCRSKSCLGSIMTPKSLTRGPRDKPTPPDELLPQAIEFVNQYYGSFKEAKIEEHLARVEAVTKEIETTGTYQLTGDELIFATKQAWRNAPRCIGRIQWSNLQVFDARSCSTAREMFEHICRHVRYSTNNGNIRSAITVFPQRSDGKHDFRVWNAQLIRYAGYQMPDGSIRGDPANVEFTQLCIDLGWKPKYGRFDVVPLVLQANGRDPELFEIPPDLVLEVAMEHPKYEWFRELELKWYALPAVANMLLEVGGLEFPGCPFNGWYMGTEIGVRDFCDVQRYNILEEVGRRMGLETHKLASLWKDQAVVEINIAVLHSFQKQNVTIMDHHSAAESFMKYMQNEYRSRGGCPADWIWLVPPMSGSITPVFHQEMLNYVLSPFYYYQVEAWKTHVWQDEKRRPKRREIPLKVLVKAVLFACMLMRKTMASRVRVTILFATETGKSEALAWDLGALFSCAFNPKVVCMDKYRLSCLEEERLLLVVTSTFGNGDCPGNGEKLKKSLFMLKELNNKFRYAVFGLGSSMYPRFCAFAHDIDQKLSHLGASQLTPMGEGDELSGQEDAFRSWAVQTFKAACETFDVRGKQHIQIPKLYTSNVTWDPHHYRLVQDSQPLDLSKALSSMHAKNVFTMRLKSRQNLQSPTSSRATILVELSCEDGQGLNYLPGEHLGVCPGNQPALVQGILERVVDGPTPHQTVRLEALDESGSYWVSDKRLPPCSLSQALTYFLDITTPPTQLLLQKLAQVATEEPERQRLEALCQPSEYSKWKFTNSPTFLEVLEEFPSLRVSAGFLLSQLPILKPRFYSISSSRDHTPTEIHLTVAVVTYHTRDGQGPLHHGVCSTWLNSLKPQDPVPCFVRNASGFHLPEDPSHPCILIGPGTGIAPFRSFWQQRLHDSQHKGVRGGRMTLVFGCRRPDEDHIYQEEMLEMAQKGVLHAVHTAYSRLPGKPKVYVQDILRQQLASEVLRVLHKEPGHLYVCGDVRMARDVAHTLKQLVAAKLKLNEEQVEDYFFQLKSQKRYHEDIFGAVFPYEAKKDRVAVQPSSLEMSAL
Sequence of Nitric oxide synthase 1 (Homo sapiens, UniProt P29475) (P29475 whole entry): as the sequence (P29475 whole entry, looked up) above
Sequence of Nitric oxide synthase 1 (Rattus norvegicus, UniProt P29476) (P29476 whole entry): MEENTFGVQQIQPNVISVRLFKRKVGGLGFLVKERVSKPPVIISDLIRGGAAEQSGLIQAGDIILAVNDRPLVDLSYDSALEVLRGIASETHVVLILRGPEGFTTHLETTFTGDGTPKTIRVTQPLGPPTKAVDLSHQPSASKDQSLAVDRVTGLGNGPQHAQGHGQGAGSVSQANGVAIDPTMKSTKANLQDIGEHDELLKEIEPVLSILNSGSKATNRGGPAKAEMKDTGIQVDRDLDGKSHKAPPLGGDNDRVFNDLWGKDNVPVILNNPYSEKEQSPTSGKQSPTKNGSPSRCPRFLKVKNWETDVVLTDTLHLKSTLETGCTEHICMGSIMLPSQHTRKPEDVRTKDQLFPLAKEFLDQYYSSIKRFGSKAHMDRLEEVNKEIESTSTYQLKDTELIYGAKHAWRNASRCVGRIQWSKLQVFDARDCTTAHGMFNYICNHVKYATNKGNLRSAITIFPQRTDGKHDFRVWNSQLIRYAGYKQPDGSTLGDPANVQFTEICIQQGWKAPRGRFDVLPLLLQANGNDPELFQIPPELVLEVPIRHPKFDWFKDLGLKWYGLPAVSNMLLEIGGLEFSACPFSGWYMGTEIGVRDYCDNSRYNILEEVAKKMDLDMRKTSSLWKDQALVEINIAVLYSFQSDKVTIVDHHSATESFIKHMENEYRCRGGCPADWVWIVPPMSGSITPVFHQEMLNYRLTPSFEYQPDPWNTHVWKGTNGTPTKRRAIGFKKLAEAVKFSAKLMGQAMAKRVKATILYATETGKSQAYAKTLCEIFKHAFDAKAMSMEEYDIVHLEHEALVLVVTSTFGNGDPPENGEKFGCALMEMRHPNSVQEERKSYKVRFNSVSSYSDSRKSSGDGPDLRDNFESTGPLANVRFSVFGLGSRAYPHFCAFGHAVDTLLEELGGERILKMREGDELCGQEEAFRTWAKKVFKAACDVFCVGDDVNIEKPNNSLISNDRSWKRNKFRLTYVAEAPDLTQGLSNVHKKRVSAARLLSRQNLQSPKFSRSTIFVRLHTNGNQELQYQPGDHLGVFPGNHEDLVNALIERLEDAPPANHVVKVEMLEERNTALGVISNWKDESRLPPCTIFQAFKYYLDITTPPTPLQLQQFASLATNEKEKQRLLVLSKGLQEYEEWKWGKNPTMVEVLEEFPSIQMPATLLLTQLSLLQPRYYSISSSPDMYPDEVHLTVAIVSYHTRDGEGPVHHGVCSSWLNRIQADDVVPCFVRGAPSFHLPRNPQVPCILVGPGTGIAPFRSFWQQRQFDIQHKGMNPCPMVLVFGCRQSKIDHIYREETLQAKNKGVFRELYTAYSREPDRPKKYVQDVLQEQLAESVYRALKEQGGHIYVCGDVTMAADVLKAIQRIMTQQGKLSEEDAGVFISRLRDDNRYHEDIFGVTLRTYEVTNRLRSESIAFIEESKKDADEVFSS
Sequence of Nitric oxide synthase, inducible (P35228 whole entry): as the sequence (P35228 whole entry, looked up) above
Sequence of Cytochrome P450 2C19 (P33261 whole entry): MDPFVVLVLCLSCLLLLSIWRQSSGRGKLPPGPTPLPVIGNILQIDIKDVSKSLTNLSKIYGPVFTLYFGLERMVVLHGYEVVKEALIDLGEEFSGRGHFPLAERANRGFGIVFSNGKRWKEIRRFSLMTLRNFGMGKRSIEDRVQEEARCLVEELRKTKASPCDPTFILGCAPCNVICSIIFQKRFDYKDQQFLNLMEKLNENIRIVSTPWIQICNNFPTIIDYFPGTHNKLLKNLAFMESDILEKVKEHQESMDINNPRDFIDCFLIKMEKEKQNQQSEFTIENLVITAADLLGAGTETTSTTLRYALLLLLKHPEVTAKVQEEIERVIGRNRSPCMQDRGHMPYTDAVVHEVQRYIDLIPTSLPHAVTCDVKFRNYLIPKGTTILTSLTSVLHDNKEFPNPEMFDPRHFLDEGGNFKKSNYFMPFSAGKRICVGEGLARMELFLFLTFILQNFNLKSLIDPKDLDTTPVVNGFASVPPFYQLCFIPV
Sequence of Cytochrome P450 3A4 (P08684 whole entry): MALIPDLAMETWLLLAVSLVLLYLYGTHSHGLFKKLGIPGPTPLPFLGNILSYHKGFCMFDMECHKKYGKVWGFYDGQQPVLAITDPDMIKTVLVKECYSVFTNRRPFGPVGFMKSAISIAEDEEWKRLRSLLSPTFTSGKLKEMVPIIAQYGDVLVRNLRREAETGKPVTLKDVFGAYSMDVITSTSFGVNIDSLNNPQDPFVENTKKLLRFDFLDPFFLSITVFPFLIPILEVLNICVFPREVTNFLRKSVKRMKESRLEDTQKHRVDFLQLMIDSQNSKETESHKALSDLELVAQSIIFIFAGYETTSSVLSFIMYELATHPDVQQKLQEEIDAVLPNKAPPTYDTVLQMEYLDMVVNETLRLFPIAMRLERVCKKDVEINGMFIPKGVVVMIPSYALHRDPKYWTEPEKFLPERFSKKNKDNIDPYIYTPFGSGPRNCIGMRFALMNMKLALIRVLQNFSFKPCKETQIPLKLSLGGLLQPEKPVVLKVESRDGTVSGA

SMILES	IC50 [2] [µM]	IC50 [3] [µM]	Ratio IC50 [4]	Ratio IC50 [6]	further results
CSC(=N)Nc1ccc2[nH]cc(C3=CCN(C)CC3)c2c1	–	–	–	–	IC50 [1]: 17.1 µM
CN1CCC(c2c[nH]c3ccc(NC(=N)c4cccs4)cc23)CC1	1.02	24.2	–	–	–
Cc1ccc(C(=N)Nc2ccc3[nH]cc(C4=CCN(C)CC4)c3c2)s1	10.4	65.3	6	–	–
CN1CC=C(c2c[nH]c3ccc(/N=C(\N)c4ccco4)cc23)CC1	–	–	66	106	Activity [5]: Active
CN1CCC(c2c[nH]c3ccc(NC(=N)c4ccccc4)cc23)CC1	18	249	14	–	–
CN1CC=C(c2c[nH]c3ccc(NC(=S)NC(=O)c4ccccc4)cc23)CC1	–	–	3	–	–
CN1CCC(c2c[nH]c3ccc(NC(=N)c4ccco4)cc23)CC1	–	–	–	–	IC50 [1]: 108 µM
CN1CCC(c2c[nH]c3ccc(/N=C(\N)c4cccs4)cc23)CC1	–	–	–	57	–
CS/C(N)=N/c1ccc2[nH]cc(C3=CCN(C)CC3)c2c1	–	–	16	8	–
CN1CC=C(c2c[nH]c3ccc(NC(=N)c4cccs4)cc23)CC1	0.19	22.4	–	–	IC50 [7]: 2.3 µM
CN1CC=C(c2c[nH]c3ccc(/N=C(\N)c4cccs4)cc23)CC1	–	–	118	105	–
CN1CC=C(c2c[nH]c3cc(NC(=N)c4cccs4)ccc23)CC1	–	–	33	15	–
CN1CC=C(c2c[nH]c3ccc(C/N=C(\N)c4cccs4)cc23)CC1	–	–	50	66	–
CN1CCC(c2c[nH]c3ccc(/N=C(\N)c4ccco4)cc23)CC1	–	–	43	48	–
CN1CC=C(c2c[nH]c3ccc(CNC(=N)c4cccs4)cc23)CC1	1.29	64.7	–	–	–
CCS/C(N)=N/c1ccc2[nH]cc(C3=CCN(C)CC3)c2c1	–	–	22	–	–
CN1CC=C(c2c[nH]c3ccc(NC(=N)c4ccco4)cc23)CC1.Cl.Cl	0.55	36.1	–	–	IC50 [8]: Not Active; IC50 [9]: > 100 µM; IC50 [7]: 2.6 µM; IC50 [10]: 9.52 µM; IC50 [11]: > 100 µM; IC50 [12]: > 100 µM; IC50 [13]: 20.5 µM; Activity [14]: 94%
